Measurements as given in ChEMBL document CHEMBL4507269, “Data for DCP probe BAY-386” (2021).

Tests used:
[1] = target: Myotonin-protein kinase (Homo sapiens) (UniProt Q09013); settings: Compound concentration 1000.0 nM
[2] = target: Alpha-1B adrenergic receptor (Homo sapiens) (UniProt P35368); settings: Compound concentration 10.0 uM
[3] = test system: Tyrosine-protein kinase ABL1 (Homo sapiens), P00519 [T315I]; settings: Compound concentration 1000.0 nM
[4] = test system: Tyrosine-protein kinase ABL1 (Homo sapiens), P00519 [Q252H]; settings: Compound concentration 1000.0 nM
[5] = target: T1, Alpha-1A adrenergic receptor (Homo sapiens) (UniProt P35348); settings: Compound concentration 10.0 uM
T1 sequence (whole entry): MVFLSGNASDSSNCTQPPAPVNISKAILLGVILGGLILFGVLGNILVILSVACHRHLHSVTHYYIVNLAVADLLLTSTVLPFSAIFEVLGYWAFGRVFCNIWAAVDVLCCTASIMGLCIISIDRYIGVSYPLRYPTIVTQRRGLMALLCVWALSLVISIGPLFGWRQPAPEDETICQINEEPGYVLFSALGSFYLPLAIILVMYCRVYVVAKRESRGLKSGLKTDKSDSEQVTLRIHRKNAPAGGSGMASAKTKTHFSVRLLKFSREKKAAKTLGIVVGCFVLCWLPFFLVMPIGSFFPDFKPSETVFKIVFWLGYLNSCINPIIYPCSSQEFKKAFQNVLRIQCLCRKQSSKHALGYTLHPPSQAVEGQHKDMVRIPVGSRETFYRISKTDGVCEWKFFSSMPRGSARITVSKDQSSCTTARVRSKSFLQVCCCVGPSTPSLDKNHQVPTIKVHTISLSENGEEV

[6] = target: Calcium/calmodulin-dependent protein kinase type II subunit delta (Homo sapiens) (UniProt Q13557); settings: Compound concentration 1000.0 nM
[7] = test system: Receptor-type tyrosine-protein kinase FLT3 (Homo sapiens), P36888 [UNDEFINED MUTATION]; settings: Compound concentration 1000.0 nM
Receptor-type tyrosine-protein kinase FLT3 (Homo sapiens), P36888 [UNDEFINED MUTATION], sequence (P36888 whole entry, looked up, change not shown): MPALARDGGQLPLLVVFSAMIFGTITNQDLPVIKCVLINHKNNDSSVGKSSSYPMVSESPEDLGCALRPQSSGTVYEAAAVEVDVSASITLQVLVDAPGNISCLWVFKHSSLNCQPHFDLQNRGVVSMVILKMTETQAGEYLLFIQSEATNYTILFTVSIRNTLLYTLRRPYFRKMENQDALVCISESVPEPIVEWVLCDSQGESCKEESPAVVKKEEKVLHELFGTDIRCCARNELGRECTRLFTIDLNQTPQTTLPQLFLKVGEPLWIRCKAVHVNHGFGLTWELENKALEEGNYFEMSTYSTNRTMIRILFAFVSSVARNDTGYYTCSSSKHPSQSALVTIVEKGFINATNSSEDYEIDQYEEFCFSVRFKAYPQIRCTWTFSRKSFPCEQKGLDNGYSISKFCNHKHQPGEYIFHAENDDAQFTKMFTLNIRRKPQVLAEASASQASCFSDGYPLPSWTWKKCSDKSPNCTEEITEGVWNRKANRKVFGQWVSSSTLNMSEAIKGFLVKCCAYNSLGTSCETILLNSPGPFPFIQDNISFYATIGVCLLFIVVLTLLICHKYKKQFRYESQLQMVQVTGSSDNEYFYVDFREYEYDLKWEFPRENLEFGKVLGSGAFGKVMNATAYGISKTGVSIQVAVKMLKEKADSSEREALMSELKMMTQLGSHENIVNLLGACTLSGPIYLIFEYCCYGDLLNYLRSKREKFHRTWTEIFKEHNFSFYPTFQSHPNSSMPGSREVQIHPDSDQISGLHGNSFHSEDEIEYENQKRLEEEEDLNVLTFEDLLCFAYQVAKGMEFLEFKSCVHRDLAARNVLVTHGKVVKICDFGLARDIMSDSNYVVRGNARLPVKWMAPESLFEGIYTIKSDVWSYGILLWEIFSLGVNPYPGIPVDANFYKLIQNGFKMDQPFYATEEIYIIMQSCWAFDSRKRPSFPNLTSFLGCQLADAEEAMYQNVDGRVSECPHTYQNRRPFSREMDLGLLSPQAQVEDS

[8] = target: Serine/threonine-protein kinase PAK 3 (Homo sapiens) (UniProt O75914); settings: Compound concentration 1000.0 nM
[9] = target: Mitogen-activated protein kinase kinase kinase 15 (Homo sapiens) (UniProt Q6ZN16); settings: Compound concentration 1000.0 nM
[10] = target: Serine/threonine-protein kinase WNK2 (Homo sapiens) (UniProt Q9Y3S1); settings: Compound concentration 1000.0 nM
[11] = test system: Epidermal growth factor receptor (Homo sapiens), P00533 [L861Q]; settings: Compound concentration 1000.0 nM
[12] = target: Dual specificity mitogen-activated protein kinase kinase 2 (Homo sapiens) (UniProt P36507); settings: Compound concentration 1000.0 nM
[13] = target: Serine/threonine-protein kinase RIO3 (Homo sapiens) (UniProt O14730); settings: Compound concentration 1000.0 nM
[14] = target: 5'-AMP-activated protein kinase catalytic subunit alpha-1 (Homo sapiens) (UniProt Q13131); settings: Compound concentration 1000.0 nM
[15] = target: Myosin light chain kinase 2, skeletal/cardiac muscle (Homo sapiens) (UniProt Q9H1R3); settings: Compound concentration 1000.0 nM
[16] = target: Mitogen-activated protein kinase kinase kinase 19 (Homo sapiens) (UniProt Q56UN5); settings: Compound concentration 1000.0 nM
[17] = target: Serine/threonine-protein kinase RIO1 (Homo sapiens) (UniProt Q9BRS2); settings: Compound concentration 1000.0 nM
[18] = test system: Mast/stem cell growth factor receptor Kit (Homo sapiens), P10721 [V559D,T670I]; settings: Compound concentration 1000.0 nM
[19] = test system: eIF-2-alpha kinase GCN2 (Homo sapiens), Q9P2K8 [S808G]; settings: Compound concentration 1000.0 nM
[20] = target: Melanocortin receptor 4 (Homo sapiens) (UniProt P32245); assay: MC4 (h) Eurofins-Cerep Cellular and Nuclear Receptor Functional Assays; settings: Compound concentration 10.0 uM
Melanocortin receptor 4 (Homo sapiens), sequence (P32245 whole entry): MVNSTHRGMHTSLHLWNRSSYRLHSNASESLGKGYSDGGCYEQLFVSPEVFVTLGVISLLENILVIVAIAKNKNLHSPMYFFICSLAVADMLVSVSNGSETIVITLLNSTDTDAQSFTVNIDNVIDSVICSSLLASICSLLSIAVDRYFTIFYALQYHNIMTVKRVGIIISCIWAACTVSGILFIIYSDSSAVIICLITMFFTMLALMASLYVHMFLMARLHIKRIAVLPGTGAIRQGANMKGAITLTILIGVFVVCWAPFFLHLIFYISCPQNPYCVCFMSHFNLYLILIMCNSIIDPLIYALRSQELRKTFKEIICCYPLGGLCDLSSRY

[21] = target: Serine/threonine-protein kinase NIM1 (Homo sapiens) (UniProt Q8IY84); settings: Compound concentration 1000.0 nM
Serine/threonine-protein kinase NIM1 (Homo sapiens), sequence (Q8IY84 whole entry, the tested form may be a part): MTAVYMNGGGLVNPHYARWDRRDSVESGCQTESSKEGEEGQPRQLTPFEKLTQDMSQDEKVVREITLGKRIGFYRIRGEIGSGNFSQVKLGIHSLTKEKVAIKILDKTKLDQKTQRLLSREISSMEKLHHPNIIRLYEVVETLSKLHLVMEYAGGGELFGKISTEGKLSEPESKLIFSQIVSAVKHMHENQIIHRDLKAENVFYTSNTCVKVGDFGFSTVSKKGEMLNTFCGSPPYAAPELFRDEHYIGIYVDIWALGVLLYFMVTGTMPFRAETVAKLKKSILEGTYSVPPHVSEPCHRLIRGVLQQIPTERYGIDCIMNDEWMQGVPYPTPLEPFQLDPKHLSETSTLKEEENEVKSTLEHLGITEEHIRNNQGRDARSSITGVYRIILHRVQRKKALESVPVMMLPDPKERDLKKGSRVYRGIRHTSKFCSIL

[22] = target: Ankyrin repeat and protein kinase domain-containing protein 1 (Homo sapiens) (UniProt Q8NFD2); settings: Compound concentration 1000.0 nM
Ankyrin repeat and protein kinase domain-containing protein 1 (Homo sapiens), sequence (Q8NFD2 whole entry, the tested form may be a part): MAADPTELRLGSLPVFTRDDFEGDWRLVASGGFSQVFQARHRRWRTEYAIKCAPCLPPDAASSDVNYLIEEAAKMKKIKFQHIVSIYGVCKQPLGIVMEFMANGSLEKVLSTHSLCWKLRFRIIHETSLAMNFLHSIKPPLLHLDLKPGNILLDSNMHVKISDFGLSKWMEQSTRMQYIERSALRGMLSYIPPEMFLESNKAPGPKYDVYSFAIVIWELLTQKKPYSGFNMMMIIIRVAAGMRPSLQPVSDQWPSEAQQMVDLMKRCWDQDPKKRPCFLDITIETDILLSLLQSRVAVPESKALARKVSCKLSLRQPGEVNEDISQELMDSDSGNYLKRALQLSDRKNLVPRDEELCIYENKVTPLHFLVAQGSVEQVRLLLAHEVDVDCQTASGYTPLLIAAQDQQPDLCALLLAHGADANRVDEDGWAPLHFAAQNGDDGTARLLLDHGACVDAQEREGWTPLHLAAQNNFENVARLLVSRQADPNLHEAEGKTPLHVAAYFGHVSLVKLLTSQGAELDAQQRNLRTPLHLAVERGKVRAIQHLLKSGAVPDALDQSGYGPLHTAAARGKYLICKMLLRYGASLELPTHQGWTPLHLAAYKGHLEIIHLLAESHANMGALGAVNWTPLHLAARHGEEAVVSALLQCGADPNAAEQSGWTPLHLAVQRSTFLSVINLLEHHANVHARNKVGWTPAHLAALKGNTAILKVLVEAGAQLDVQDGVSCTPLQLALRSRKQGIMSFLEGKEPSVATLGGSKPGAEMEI

[23] = target: Cytoplasmic tyrosine-protein kinase BMX (Homo sapiens) (UniProt P51813); settings: Compound concentration 1000.0 nM
Cytoplasmic tyrosine-protein kinase BMX (Homo sapiens), sequence (P51813 whole entry): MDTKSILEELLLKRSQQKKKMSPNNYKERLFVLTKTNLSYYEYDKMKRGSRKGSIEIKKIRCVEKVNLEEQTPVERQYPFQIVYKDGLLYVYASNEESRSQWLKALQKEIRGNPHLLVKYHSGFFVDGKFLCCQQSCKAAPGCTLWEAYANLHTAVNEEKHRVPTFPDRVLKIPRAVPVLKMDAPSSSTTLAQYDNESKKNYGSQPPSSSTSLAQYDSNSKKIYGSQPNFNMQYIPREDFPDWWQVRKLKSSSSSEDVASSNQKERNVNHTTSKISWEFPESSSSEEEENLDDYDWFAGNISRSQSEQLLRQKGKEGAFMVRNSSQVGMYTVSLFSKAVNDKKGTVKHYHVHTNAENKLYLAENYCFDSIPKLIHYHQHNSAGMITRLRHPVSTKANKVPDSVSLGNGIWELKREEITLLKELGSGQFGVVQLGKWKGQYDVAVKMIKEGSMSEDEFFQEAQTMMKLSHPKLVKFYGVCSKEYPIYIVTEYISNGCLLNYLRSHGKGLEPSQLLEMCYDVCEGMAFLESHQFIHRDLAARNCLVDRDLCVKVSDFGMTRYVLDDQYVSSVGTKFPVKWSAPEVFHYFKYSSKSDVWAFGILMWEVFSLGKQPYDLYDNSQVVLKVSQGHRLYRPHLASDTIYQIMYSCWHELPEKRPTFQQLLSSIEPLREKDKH

[24] = test system: Serine/threonine-protein kinase B-raf (Homo sapiens), P15056 [V600E]; settings: Compound concentration 1000.0 nM
[25] = target: Cyclin-dependent kinase 19 (Homo sapiens) (UniProt Q9BWU1); settings: Compound concentration 1000.0 nM
Cyclin-dependent kinase 19 (Homo sapiens), sequence (Q9BWU1 whole entry): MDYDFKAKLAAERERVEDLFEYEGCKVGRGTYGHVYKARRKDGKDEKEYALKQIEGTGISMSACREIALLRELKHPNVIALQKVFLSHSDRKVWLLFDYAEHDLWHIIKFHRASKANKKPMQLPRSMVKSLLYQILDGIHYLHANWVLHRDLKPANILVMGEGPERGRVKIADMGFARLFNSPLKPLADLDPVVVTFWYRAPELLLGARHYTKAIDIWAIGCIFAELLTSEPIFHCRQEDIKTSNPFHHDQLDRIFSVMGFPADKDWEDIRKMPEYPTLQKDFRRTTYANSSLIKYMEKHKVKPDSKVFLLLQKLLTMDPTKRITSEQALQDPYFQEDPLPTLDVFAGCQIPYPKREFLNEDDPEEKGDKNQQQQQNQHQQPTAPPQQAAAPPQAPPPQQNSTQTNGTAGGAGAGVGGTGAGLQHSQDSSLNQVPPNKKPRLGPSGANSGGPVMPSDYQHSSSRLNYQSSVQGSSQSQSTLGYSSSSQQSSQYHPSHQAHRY

[26] = target: Tyrosine-protein kinase CSK (Homo sapiens) (UniProt P41240); settings: Compound concentration 1000.0 nM
[27] = target: Delta-type opioid receptor (Homo sapiens) (UniProt P41143); settings: Compound concentration 10.0 uM
[28] = target: Serine/threonine-protein kinase Sgk3 (Homo sapiens) (UniProt Q96BR1); settings: Compound concentration 1000.0 nM
[29] = target: Mitogen-activated protein kinase 9 (Homo sapiens) (UniProt P45984); settings: Compound concentration 1000.0 nM
[30] = target: Tyrosine-protein kinase JAK3 (Homo sapiens) (UniProt P52333); settings: Compound concentration 1000.0 nM
[31] = target: Tyrosine-protein kinase TXK (Homo sapiens) (UniProt P42681); settings: Compound concentration 1000.0 nM
[32] = target: GABA-A receptor; anion channel (Rattus norvegicus) (UniProt O09028+P15431+P18506+P18508+P19969+P20236+P23574+P23576+P28471+P28473+P30191+P62813+P63079+P63138+Q91ZM7+Q9ES14); settings: Compound concentration 10.0 uM
[33] = target: Dual specificity mitogen-activated protein kinase kinase 7 (Homo sapiens) (UniProt O14733); settings: Compound concentration 1000.0 nM
[34] = target: Dual serine/threonine and tyrosine protein kinase (Homo sapiens) (UniProt Q6XUX3); settings: Compound concentration 1000.0 nM
[35] = test system: Proto-oncogene tyrosine-protein kinase receptor Ret (Homo sapiens), P07949 [V804L]; settings: Compound concentration 1000.0 nM
[36] = target: Mitotic checkpoint serine/threonine-protein kinase BUB1 (Homo sapiens) (UniProt O43683); settings: Compound concentration 1000.0 nM
Mitotic checkpoint serine/threonine-protein kinase BUB1 (Homo sapiens), sequence (O43683 whole entry, looked up): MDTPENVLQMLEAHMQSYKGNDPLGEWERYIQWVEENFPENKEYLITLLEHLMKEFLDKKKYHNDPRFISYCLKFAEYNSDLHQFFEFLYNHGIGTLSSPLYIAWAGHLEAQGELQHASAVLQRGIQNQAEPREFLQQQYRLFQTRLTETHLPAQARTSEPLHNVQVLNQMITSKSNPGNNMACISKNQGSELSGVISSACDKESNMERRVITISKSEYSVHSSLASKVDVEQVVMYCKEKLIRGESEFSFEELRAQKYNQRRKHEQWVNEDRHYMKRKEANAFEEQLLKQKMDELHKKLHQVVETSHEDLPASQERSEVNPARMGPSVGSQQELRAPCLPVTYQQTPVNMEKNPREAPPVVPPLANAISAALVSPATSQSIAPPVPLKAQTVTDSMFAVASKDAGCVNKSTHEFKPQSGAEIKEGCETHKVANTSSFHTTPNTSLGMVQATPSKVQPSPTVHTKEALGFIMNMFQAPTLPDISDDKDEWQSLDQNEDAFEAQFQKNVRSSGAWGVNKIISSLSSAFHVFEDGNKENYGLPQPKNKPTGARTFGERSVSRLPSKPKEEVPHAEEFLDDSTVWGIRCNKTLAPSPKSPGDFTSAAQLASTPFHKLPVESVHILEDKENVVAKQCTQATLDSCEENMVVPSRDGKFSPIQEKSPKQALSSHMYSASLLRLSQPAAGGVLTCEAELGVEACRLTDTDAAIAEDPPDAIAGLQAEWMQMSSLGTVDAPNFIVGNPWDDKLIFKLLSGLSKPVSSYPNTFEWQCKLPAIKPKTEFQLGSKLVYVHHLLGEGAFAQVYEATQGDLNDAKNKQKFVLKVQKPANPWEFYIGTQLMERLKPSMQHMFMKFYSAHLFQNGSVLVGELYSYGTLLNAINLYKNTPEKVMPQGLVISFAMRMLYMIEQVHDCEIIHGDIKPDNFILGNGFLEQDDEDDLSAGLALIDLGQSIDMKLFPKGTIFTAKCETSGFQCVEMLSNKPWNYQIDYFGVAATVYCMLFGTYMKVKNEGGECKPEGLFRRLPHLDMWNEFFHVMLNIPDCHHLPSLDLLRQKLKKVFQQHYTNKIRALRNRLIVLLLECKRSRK

[37] = target: Tyrosine-protein kinase Srms (Homo sapiens) (UniProt Q9H3Y6); settings: Compound concentration 1000.0 nM

In the case of O=C(N1CCS(=O)(=O)CC1)N1C[C@H](c2ccc(OC(F)(F)F)cc2)C[C@H](c2nc(C3CC3)no2)C1 [BAY-386], the residual activity [1] is reported as 100%, the inhibition [2] is reported as 14.2% and the residual activity [3] is reported as 92%. It also gave a residual activity [4] of 100%, an inhibition [5] of -5% and a residual activity [6] of 100%. For the same molecule, the residual activity [7] was 93%, the residual activity [8] was 100% and the residual activity [9] was 100%. The residual activity [10] was 73%, the residual activity [11] was 68% and the residual activity [12] was 100%. For the same molecule, the residual activity [13] was 85%, the residual activity [14] was 100% and the residual activity [15] was 100%. For the same molecule, the residual activity [16] was 58%, the residual activity [17] was 100% and the residual activity [18] was 100%. The residual activity [19] was 100%, the % Inhibition of Control Agonist Response (Mean n=2) [20] was -8.1% and the % of Control Agonist Response (Mean n=2) [20] was -1.2%. The residual activity [21] was 93%, the residual activity [22] was 100% and the residual activity [23] was 100%. The residual activity [24] was 100%, the residual activity [25] was 100% and the residual activity [26] was 100%. The inhibition [27] was -2.63%, the residual activity [28] was 100% and the residual activity [29] was 84%. It also gave a residual activity [30] of 100%, a residual activity [31] of 100% and an inhibition [32] of -2.64%. For the same molecule, the residual activity [33] was 100%, the residual activity [34] was 100% and the residual activity [35] was 99%. For the same molecule, the residual activity [36] was 100% and the residual activity [37] was 100%.

In the case of Cc1noc([C@H]2C[C@@H](c3ccc(C(F)(F)F)cc3)CN(C(=O)N3CCS(=O)(=O)C3)C2)n1 [BAY-448], the residual activity [1] is reported as 100%, the inhibition [2] is reported as -1.18% and the residual activity [3] is reported as 100%. It also gave a residual activity [4] of 100%, an inhibition [5] of -4.12% and a residual activity [6] of 100%. The residual activity [7] was 100%, the residual activity [8] was 100% and the residual activity [9] was 100%. For the same molecule, the residual activity [10] was 100%, the residual activity [11] was 78% and the residual activity [12] was 90%. It also gave a residual activity [13] of 100%, a residual activity [14] of 100% and a residual activity [15] of 100%. For the same molecule, the residual activity [16] was 77%, the residual activity [17] was 100% and the residual activity [18] was 100%. It also gave a residual activity [19] of 28%, a % Inhibition of Control Agonist Response (Mean n=2) [20] of 14.3% and a % of Control Agonist Response (Mean n=2) [20] of -1.8%. It also gave a residual activity [21] of 100%, a residual activity [22] of 100% and a residual activity [23] of 100%. It also gave a residual activity [24] of 89%, a residual activity [25] of 100% and a residual activity [26] of 100%. It also gave an inhibition [27] of -0.62%, a residual activity [28] of 100% and a residual activity [29] of 99%. The residual activity [30] was 100%, the residual activity [31] was 92% and the inhibition [32] was 28.4%. The residual activity [33] was 100%, the residual activity [34] was 94% and the residual activity [35] was 100%. It also gave a residual activity [36] of 100% and a residual activity [37] of 89%.
